What was measured:
[1] = system: neonatal rat ventricular myocytes (NRVMs); assay: Comparison of NRVM and hiPSC-CM in drug test (NRVM); type: cell-based; conditions: animal cells
From the text: (§1) There are several similarities and differences in the drug response between animal and human cardiomyocytes.

[2] = system: human-induced pluripotent stem cell-cardiomyocytes (hiPSC-CMs); assay: Comparison of NRVM and hiPSC-CM in drug test (hiPSC-CM); type: cell-based
From the text: as §1

[3] = system: cardiomyocytes; assay: Drug screening on bare and embedded PDMS cantilevers (beat displacement); type: cell-based, rat; conditions: for displacement reduction: 10 nM drug; for contraction returned compared with before drug treatment: 24 h after media replacement
From the text: To quantitatively analyze the correlation between cell maturation and drug toxicity, polymer cantilever arrays composed of the bare thin film and the embedded thin film were fabricated.

[4] = system: human-induced pluripotent stem cell-cardiomyocytes (hiPSC-CMs); assay: Drug screening for hiPSC-CMs on bare and embedded PDMS; type: cell-based; conditions: after 48 h
Procedure: Since pre-clinical studies on rats could not completely predict effects on the human heart, human-induced pluripotent stem cell-cardiomyocytes (hiPSC-CMs) had significant advantages over the use of animal models. To further investigate the responses of different drugs on immature and mature cardiomyocytes in human cells, hiPSC-CMs were cultured.

Cc1ccc2c(c1)C(=O)C1(O)CCN(c3ccccc3)C1=N2 (stereo not shown) [blebbistatin]
tendency of beat frequency and contraction with increasing drug [1]: decrease both beat frequency and contraction force
IC50 ([2]; (b) of FIG. 20A, NRVM vs hiPSC-CM comparison, cell type of the value not stated): ~1000 nM
tendency of beat frequency and contraction with increasing drug ([2]; human cells): decrease only displacement
displacement reduction ([3]; bare PDMS cantilever): half displacement reduction
displacement reduction ([3]; embedded PDMS cantilever): about 10%
beating of cardiomyocytes ([3]; 1 μM drug, cultured on bare PDMS): no longer beat
beat rate level compared with the maximum displacement value ([3]; 1 μM drug, cultured on embedded PDMS): 20%
contraction returned compared with before drug treatment ([3]; bare PDMS cantilever): 10%
contraction returned compared with before drug treatment ([3]; embedded PDMS cantilever): ≥ 75%
decreased contraction force returned after washing ([3]; after washing for 48 h, AgNW-embedded PDMS substrate): 75%
beat behavior after washing ([3]; after washing for 48 h, control bare PDMS): not returned to the initial state
IC50 ([3]; cardiomyocytes cultured on bare PDMS thin film): 174 nM
IC50 ([3]; cardiomyocytes cultured on embedded PDMS thin film): 521 nM
contraction force returned after replacement of culture ([4]; hiPSC-CMs on bare PDMS): did not return
contraction force returned after replacement of culture ([4]; hiPSC-CMs on embedded PDMS): ≥ 70%

Cc1cccc(CCN2CCC(C(=O)c3ccc(NS(C)(=O)=O)cc3)CC2)n1 [E-4031]
resistance of cardiomyocytes to the drug ([3]; cultured on embedded PDMS, FIGS. 17B and 17C): enhanced resistance
